pIC50: −log10 of the molar value. “Also recorded” adds a separate entry of the source.
What was measured:
[1] = tested on: reuptake of GABA; assay: GABA reuptake, general statement; type: cell-based
Procedure: (§1) tsA201 cells were cultured in GlutaMAX-I DMEM supplemented with 10% fetal bovine serum, penicillin (100 U/ml), and streptomycin (100 μg/ml) at 37° C. in a humidified atmosphere of 95% air and 5% CO2. […] Quantification was performed by using Microscint™ 20 scintillation fluid (Perkin Elmer) and a Packard TopCount microplate scintillation counter.
(§2) Cortical neurons were cultured essentially as previously described by removing the neopallium of 15-day old NMRI embryos by dissection followed by mild trypsination (Hertz E, Yu A C H, Hertz L, Juurlink B H J and Schousboe A. Preparation of Primary Cultures of Mouse Cortical Neurons, in A Dissection and Tissue Culture Manual of the Nervous System (Shahar A, de Vellis J, Vernadakis A and Haber B eds) pp 183-186, Alan R. Liss, Inc., New York, […]). The neurons were cultured in 10% fetal calf serum and, after 48 h, cytosine arabinoside was added to a final concentration of 20 μM to prevent glial proliferation. […] The stable cell lines are under the selection pressure of blasticidin-S at 5 μg/mL. […] Radioactivity was measured using Microscint™ 20 scintillation fluid (PerkinElmer) and a Packard TopCount microplate scintillation counter.

[2] = tested on: cortical neurons; assay: [^3H]GABA uptake in cultured cortical neurons; type: cell-based, mouse
Procedure: as §2

[3] = tested on: cortical astrocytes; assay: [^3H]GABA uptake in cultured cortical astrocytes; type: cell-based, mouse
Procedure: Cortical astrocytes were cultured essentially as previously described (Hertz L, Juurlink B H J, Hertz E, Fosmark H and Schousboe A, Preparation of Primary Cultures of Mouse (Rat) Astrocytes, in A Dissection and Tissue Culture Manual of the Nervous System (Shahar A, de Vellis J, Vernadakis A and Haber B eds) pp 105-108, Alan R. Liss, Inc., New York, 1989). The neopallium was removed from new born NMRI mice (Taconic, Denmark) and passed through an 80 μm nylon sieve and cultured in modified Dulbecco's modified Eagle's medium with fetal calf serum. The calf serum was lowered from 20% to 10% over three weeks, and finally the astrocytes were allowed to differentiate using 0.25 mM dibutyryl cyclic AMP during the last week of growth.
Cortical neurons were cultured essentially as previously described by removing the neopallium of 15-day old NMRI embryos by dissection followed by mild trypsination (Hertz E, Yu A C H, Hertz L, Juurlink B H J and Schousboe A. Preparation of Primary Cultures of Mouse Cortical Neurons, in A Dissection and Tissue Culture Manual of the Nervous System (Shahar A, de Vellis J, Vernadakis A and Haber B eds) pp 183-186, Alan R. Liss, Inc., New York, 198). […] Radioactivity was measured using Microscint™ 20 scintillation fluid (PerkinElmer) and a Packard TopCount microplate scintillation counter.

[4] = tested on: GABAA receptor; assay: [^3H]muscimol competition binding, rat brain synaptic membranes
Procedure: On the day of the assay, the membrane preparation was quickly thawed, suspended in 40 volumes of ice-cold 50 mM Tris-HCl buffer (pH 7.4) using an UltraTurrax homogenizer and centrifuged at 48,000 g for 10 min at 4° C. This washing step was repeated four times. The final pellet was resuspended in incubation buffer and the binding assay carried out as detailed below.

[5] = molecular target: T1, GABAB receptor (Rattus norvegicus, UniProt Q9Z0U4); settings: 100 μM, rat brain cortical homogenate; hydrochloride salt
[6] = molecular target: T2, human ρ1 GABAC receptors (Homo sapiens, UniProt P24046); assay: Activity at recombinant GABAC receptors expressed in oocytes; type: cell-based; settings: 100 μM, hydrochloride salt
T2 construct: expressed in transfected cells; host or cells: Xenopus laevis oocytes

[7] = molecular target: T3, hBGT-1 (Homo sapiens, UniProt P48065); assay: [^3H]GABA uptake assay at human GABA transporters, tsA201 cells; type: cell-based; settings: mammalian cells recombinantly expressing hBGT-1
T3 construct: expressed in transfected cells; host or cells: tsA201 cells (transient, PolyFect)
T3 sequence (P48065 1-614): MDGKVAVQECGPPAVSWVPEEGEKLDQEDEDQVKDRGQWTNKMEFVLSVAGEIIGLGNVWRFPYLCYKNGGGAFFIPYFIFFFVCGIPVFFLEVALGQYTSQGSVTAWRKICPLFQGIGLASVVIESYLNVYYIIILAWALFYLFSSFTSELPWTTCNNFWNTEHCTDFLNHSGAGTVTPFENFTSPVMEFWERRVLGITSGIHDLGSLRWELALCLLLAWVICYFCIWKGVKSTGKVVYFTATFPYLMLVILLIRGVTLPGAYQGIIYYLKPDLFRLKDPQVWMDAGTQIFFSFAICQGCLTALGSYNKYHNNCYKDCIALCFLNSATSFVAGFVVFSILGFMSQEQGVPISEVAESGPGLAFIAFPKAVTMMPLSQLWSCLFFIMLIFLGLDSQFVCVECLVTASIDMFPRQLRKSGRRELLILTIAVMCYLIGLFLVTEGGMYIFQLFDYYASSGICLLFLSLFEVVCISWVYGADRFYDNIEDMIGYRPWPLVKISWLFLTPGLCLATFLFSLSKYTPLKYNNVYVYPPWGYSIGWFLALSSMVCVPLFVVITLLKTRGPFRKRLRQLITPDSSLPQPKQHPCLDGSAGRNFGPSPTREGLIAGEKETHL
Procedure: as §1

[8] = molecular target: T4, hGAT-2 (Homo sapiens, UniProt Q9NSD5); assay: as above; type: cell-based; settings: mammalian cells recombinantly expressing hGAT-2
T4 construct: expressed in transfected cells; host or cells: tsA201 cells (transient, PolyFect)
T4 sequence (Q9NSD5 1-602): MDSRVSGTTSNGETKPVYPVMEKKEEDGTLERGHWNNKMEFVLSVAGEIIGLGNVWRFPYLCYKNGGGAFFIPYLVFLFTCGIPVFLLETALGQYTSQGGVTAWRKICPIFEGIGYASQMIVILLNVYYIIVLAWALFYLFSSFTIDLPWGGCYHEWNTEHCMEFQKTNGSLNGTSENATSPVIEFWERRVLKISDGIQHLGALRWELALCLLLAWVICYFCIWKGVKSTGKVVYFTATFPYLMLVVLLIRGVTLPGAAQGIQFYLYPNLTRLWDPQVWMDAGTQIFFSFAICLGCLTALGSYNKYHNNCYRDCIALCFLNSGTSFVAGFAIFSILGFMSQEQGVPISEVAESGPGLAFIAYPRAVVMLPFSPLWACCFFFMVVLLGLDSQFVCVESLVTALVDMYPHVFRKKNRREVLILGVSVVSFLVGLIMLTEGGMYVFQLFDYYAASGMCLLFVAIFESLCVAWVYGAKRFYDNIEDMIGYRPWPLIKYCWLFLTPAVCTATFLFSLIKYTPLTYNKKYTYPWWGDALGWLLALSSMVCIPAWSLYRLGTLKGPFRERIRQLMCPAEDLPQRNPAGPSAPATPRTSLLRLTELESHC
Procedure: as §1

[9] = molecular target: T5, hGAT-3 (Homo sapiens, UniProt P48066); assay: as above; type: cell-based; settings: mammalian cells recombinantly expressing hGAT-3
T5 construct: expressed in transfected cells; host or cells: tsA201 cells (transient, PolyFect)
T5 sequence (P48066 1-632): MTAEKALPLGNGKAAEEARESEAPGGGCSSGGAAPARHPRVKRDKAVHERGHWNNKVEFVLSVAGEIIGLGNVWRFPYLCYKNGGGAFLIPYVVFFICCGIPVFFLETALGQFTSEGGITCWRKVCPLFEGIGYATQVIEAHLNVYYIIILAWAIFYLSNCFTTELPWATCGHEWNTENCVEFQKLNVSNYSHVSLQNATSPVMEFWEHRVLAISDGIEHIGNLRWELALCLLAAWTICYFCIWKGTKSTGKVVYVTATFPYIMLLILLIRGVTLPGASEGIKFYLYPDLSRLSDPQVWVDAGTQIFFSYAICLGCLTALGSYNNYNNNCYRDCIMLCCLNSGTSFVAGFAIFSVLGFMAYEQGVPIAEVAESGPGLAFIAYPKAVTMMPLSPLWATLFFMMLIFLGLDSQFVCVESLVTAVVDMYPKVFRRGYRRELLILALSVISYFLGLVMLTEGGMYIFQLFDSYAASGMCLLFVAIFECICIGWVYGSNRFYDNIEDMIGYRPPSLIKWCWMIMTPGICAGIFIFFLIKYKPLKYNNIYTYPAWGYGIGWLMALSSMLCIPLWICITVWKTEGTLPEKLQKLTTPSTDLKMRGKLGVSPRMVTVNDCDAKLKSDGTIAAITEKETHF
Procedure: as §1

[10] = molecular target: T6, hGAT-1 (Homo sapiens, UniProt P30531); assay: as above; type: cell-based; settings: mammalian cells recombinantly expressing hGAT-1
T6 construct: expressed in transfected cells; host or cells: tsA201 cells (transient, PolyFect)
Procedure: as §1

[11] = molecular target: T1, GABAB receptor; assay: biochemical

T1 sequence (Q9Z0U4 17-960 limits assumed): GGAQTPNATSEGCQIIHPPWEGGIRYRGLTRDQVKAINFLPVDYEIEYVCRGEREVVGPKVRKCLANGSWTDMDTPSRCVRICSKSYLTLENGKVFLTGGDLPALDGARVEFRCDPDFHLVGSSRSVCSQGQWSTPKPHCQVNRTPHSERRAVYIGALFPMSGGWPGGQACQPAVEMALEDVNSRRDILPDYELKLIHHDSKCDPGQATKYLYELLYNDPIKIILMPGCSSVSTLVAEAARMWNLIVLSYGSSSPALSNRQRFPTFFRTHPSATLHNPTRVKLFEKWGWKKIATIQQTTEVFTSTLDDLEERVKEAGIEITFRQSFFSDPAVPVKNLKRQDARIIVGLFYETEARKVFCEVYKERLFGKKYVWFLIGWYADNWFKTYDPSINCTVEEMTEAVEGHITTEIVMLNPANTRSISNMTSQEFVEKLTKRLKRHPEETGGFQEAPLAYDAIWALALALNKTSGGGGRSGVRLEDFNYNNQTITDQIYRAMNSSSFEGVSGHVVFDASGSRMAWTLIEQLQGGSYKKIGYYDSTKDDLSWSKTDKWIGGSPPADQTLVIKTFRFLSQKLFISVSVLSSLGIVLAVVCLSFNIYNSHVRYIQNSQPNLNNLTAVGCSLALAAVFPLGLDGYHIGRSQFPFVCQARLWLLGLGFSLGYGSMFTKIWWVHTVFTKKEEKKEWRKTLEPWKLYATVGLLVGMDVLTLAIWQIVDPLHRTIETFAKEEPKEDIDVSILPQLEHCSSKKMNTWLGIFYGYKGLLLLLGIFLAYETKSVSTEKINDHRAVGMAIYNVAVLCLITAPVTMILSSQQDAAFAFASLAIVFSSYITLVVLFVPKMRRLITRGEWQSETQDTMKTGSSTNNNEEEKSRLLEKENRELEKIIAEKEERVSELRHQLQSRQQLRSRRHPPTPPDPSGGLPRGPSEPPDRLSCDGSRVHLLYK
T1 sequence (O88871 41-940 partner): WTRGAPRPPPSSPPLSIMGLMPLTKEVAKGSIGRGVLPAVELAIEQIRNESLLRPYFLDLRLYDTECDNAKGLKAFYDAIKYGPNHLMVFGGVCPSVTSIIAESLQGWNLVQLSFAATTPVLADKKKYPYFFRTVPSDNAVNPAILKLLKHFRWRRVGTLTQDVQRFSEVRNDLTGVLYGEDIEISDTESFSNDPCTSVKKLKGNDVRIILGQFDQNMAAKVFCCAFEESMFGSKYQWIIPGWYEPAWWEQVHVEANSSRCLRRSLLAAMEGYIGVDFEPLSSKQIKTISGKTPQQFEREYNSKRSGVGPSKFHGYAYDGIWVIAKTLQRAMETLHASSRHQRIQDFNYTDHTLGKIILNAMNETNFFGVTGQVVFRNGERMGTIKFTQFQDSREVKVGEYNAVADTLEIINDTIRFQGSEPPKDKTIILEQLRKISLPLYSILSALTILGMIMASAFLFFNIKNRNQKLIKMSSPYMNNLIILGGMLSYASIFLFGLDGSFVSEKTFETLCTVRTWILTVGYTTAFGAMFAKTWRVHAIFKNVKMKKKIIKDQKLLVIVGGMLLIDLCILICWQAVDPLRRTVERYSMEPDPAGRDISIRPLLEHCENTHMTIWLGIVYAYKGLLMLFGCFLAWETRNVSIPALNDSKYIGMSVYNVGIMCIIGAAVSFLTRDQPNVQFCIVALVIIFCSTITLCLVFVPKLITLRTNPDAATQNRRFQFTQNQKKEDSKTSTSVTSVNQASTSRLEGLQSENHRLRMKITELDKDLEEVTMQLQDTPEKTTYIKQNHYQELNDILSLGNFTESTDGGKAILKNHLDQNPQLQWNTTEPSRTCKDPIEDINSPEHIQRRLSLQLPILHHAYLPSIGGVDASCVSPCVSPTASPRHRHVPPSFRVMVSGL
T2 sequence (P24046 22-479): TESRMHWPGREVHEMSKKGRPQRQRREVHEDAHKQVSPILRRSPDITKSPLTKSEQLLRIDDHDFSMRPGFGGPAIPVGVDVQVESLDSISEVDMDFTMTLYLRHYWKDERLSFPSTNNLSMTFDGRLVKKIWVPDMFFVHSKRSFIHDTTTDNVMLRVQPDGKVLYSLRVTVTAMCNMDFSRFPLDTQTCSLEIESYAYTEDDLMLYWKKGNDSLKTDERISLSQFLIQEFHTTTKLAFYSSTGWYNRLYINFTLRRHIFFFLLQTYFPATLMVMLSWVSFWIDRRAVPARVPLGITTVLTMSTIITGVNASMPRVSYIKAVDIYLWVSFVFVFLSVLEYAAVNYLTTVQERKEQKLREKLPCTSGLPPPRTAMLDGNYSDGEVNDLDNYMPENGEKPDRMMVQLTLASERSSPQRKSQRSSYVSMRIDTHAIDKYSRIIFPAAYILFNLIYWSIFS
T6 sequence (P30531 whole entry): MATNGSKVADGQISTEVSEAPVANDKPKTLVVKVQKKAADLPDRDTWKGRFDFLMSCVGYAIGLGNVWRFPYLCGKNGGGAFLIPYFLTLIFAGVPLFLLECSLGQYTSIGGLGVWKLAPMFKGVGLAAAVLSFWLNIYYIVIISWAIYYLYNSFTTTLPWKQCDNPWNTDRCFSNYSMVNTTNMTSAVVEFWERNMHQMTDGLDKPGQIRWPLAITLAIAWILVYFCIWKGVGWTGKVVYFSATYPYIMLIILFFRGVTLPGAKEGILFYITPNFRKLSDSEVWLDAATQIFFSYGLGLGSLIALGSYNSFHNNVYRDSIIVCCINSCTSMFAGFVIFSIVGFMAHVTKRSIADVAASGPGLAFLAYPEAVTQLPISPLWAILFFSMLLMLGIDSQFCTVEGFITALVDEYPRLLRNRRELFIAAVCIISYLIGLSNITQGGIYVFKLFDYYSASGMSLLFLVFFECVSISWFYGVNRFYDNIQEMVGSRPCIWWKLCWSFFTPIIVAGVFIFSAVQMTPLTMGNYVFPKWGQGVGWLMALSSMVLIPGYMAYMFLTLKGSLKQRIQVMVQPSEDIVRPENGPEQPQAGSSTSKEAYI

| Structure (SMILES) | inhibition of the reuptake of GABA [1] | inhibition of [^3H]GABA uptake [2] | inhibition of [^3H]GABA uptake [3] | inhibition of radioligand binding at GABAA receptors ([4]; 100 μM, rat brain cortical homogenate, hydrochloride salt) | inhibition of radioligand binding at GABAB receptors [5] | agonist or antagonist effect at GABAC receptors [6] | inhibition of [^3H]GABA uptake [7] | inhibition of [^3H]GABA uptake [8] | inhibition of [^3H]GABA uptake [9] | inhibition of [^3H]GABA uptake [10] | pIC50 ([4]; rat brain synaptic membranes) | pIC50 [11] |
| --- | --- | --- | --- | --- | --- | --- | --- | --- | --- | --- | --- | --- |
| Cl.N[C@H]1C[C@@H](C(=O)O)CC1=C(F)F [(1S,3S)-3-amino-4-difluoromethylenyl-1-cyclopentanoic acid hydrochloride salt] | does not inhibit the reuptake of GABA | does not inhibit | does not inhibit | no inhibition of binding was observed; also recorded: nor does it bind | no inhibition of binding was observed | no effect as an agonist or antagonist | does not inhibit | does not inhibit | does not inhibit | does not inhibit | – | – |
| N[C@H]1C[C@@H](C(=O)O)CC1=C(F)F [(1S,3S)-3-amino-4-difluoromethylenyl-1-cyclopentanoic acid] | – | – | – | – | – | – | – | – | – | – | < 4.00 | < 4.00 |

Source: patent US9254274B2, “Method of treating Tourette'S disorder with GABA-aminotransferase inactivators” (CATALYST PHARMACEUTICAL PARTNERS, priority 2012, dated 2016)
